Measured values as given in US12714680B2, “Composition for anti-aging or skin regeneration comprising Okanin” (POSCO CO., LTD, priority 2020, dated 2026).

What was measured:
Type in all cases: cell-based
EGFR = EGFR (Homo sapiens, UniProt P00533); assay: EGFR activity measurement biosensor system (EGFP-SH2 fluorescence signals); conditions: 100 μM Okanin; cells cultured in serum-free medium 24 hours; compared to DMSO control; FIG. 1
Protocol: In addition, by using the feature that, when the activities of the EGFR continue to be maintained, the EGFR is internalized into the cell, the cell of the biosensor system that may measure the activities of the EGFR was used in the present experimentation (see Korean Laid-open Patent Publication No. 2019-0014340). […] After culturing the cells in a serum-free medium for 24 hours, the cells were treated with Okanin.

HaCaT cells [1] = assay: Cytotoxicity depending on the concentrations of Okanin (cell viability)
Protocol: The cytotoxicity of Okanin was measured using HaCaT cells as keratinocytes. When cells are treated with MTT tetrazolium which is a yellow water-soluble substrate, such a substrate is reduced to MTT formazan by mitochondrial enzymes, and the color changes to blue-purple. That is, since the blue-violet color appears darker as the number of living cells increases, the blue-violet absorbance at a wavelength of 540 nm reflects the concentration of living cells. Specifically, after culturing cells to fill each well of a 96-well plate, the cells were treated with Okanin at concentrations of 0, 10, 25, 50 and 100 μM, and cultured for 24 hours and 48 hours in a 5% CO2 incubator at 37° C. Thereafter, cell viability was measured using MIT reagent. A control group not treated with Okanin (0 μM) was treated with the same amount of the solvent DMSO.

ERK = assay: Activation (phosphorylation) of ERK by Western blotting in HaCaT cells; conditions: serum-free medium, FIG. 3
Protocol: (§1) It is well known that the activities of extracellular signal-regulated kinase (ERK) and protein kinase B (AKT) transmit signals necessary for cell growth and survival by the activities of an EGFR. In addition, in Experimental Example 1, it was observed that Okanin generated signals due to activation of the EGFR in the cells of the biosense system for measuring the activities of the EGFR. Accordingly, it was measured whether the activities of the EGFR were induced by Okanin to the activities of the ERK and AKT. Specifically, HaCaT cells were cultured in a serum-free medium, treated with 10 μM. of Okanin for 10 minutes, 30 minutes and 60 minutes, respectively, and, thereafter, phosphorylated and activated ERK and AKT were analyzed by Western blotting. As antibodies, a phosphorylation antibody as a marker of activated ERK and AKT, and a general antibody for measuring all of them were used, respectively.

AKT = assay: Activation (phosphorylation) of AKT by Western blotting in HaCaT cells; conditions: serum-free medium, FIG. 3
Protocol: as §1

egr1 = assay: Gene expression change by real-time quantitative PCR in HaCaT cells: egr1; conditions: 10 μM Okanin, 1 hour, serum-free, corrected with β-actin, FIG. 4
Text: (§2) Signaling by an EGFR induces the expression of genes important for cell growth and survival through important signaling mediator proteins such as ERK and AKT. The egr1, c-myc, c-jun and c-fos genes are regulated by the EGFR and are well known as genes that promote cell growth and survival. […] Specifically, Tri-reagent was used for mRNA extraction, cDNA was created by a reverse transcription polymerase chain reaction (RT-PCR) using a poly-A primer and a reverse transcriptase, and real-time quantitative PCR was used to measure the amount of each mRNA. The amount of each mRNA was corrected with the amount of β-actin, which is a constitutive gene.

c-myc = assay: Gene expression change by real-time quantitative PCR in HaCaT cells: c-myc; conditions: 10 μM Okanin, 1 hour, serum-free, corrected with β-actin, FIG. 4
Text: as §2

c-jun = assay: Gene expression change by real-time quantitative PCR in HaCaT cells: c-jun; conditions: 10 μM Okanin, 1 hour, serum-free, corrected with β-actin, FIG. 4
Text: as §2

c-fos = assay: Gene expression change by real-time quantitative PCR in HaCaT cells: c-fos; conditions: 10 μM Okanin, 1 hour, serum-free, corrected with β-actin, FIG. 4
Text: as §2

HaCaT cells [2] = assay: Growth and proliferation of keratinocytes (CCK-8 assay); conditions: 24 hours, serum-free, vs negative control (DMSO), p<0.05, FIG. 5
Protocol: Cell counting kit-8 (CCK-8) is a water-soluble tetrazolium salt reagent called WST-8 and forms orange-colored water-soluble Formazan by dehydrogenase in the mitochondria of living cells. […] After cultured for 24 hours, the cells were treated with CCK8, and the cell growth was analyzed by measuring absorbance at 450 nm.

HaCaT cells [3] = assay: Wound healing assay; conditions: 1 μM Okanin, culture for 6 days, serum-free; vs negative control; significant difference from the 3rd day (p<0.05); FIGS. 6A, 6B
Protocol: The cell growth promoting effect of Okanin was confirmed through Wound healing assay. Specifically, after fully culturing HaCaT cells in a 12-well plate, cells on a certain area were scraped off using a yellow tip to form a wound area, changed to a serum-free medium, and treated with 1 μM of Okanin.

HaCaT cells [4] = assay: Resistance to cell damage induced by UVB (cell viability, CCK-8); conditions: 1 μM Okanin, UVB 500 mJ/cm2, serum-free, negative control about 40%, p<0.05, FIG. 7
Protocol: Among the ultraviolet wavelengths, UVB wavelengths corresponding to 280 to 315 nm penetrate the epidermal layer where many keratinocytes exist to cause cell damage. […] The solvent DMSO was used as a negative control group, and the cell viability was measured using the CCK-8 method used in Experimental Example 5.

Sequence of EGFR (P00533 25-1210, species assumed): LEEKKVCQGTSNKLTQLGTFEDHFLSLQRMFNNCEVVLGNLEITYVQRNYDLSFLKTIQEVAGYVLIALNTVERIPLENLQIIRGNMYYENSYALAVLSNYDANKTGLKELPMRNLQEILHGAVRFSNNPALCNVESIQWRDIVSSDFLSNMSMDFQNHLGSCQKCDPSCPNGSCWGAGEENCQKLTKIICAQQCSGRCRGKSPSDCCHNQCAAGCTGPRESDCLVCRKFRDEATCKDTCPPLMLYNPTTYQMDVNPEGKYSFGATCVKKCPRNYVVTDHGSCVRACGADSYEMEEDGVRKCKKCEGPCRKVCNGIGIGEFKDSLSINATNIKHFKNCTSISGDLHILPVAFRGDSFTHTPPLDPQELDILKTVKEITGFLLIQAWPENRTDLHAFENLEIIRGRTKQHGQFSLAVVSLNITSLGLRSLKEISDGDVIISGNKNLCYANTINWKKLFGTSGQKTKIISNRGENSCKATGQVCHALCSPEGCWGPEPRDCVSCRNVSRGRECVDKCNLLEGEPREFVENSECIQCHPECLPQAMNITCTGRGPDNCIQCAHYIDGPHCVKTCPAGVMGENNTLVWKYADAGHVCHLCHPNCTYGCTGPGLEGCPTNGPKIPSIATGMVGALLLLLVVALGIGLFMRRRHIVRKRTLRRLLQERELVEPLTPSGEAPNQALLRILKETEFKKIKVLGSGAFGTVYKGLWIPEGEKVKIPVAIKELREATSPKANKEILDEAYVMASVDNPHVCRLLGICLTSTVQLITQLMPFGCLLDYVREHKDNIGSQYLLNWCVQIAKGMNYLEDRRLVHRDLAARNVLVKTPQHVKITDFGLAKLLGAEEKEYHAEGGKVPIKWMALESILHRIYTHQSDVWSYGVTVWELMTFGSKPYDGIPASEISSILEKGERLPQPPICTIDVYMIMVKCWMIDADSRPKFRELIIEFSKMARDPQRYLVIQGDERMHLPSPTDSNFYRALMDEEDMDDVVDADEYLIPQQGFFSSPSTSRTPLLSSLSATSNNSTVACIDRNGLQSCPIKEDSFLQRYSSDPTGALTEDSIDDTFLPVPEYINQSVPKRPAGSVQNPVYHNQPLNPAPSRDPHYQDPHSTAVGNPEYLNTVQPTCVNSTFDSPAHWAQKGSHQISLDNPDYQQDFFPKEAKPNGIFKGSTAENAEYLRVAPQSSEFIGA

Question: What does the source list for `O=C(/C=C/c1ccc(O)c(O)c1)c1ccc(O)c(O)c1O` [Okanin, 2′,3,3′,4,4′-pentahydroxychalcone]?
Answer: EGFR activation (fluorescence signals of biosensor cells) (EGFR): activated; cytotoxicity (HaCaT cells [1]; 25 μM, cultured 24 hours and 48 hours, FIG. 2): some cytotoxicity; cytotoxicity (HaCaT cells [1]; 50 μm, cultured 24 hours and 48 hours, FIG. 2): some cytotoxicity; cytotoxicity (HaCaT cells [1]; concentration of 10 μM or less): free of cytotoxicity; induction of the activities of ERK (ERK; 10 μM Okanin for 10 minutes): sufficiently induced; time within which ERK was rapidly activated (ERK; 10 μM Okanin): ≤ 30 min; induction of the activities of AKT (AKT; 10 μM Okanin for 10 minutes): sufficiently induced; time within which AKT was rapidly activated (AKT; 10 μM Okanin): ≤ 30 min; egr1 mRNA (egr1): increased; c-myc mRNA (c-myc): increased; c-jun mRNA (c-jun): increased; c-fos mRNA (c-fos): increased; growth and proliferation of cells (HaCaT cells [2]; 100 nM Okanin): significantly increased; growth and proliferation of cells (HaCaT cells [2]; 1 μM Okanin): significantly increased; growth and proliferation of cells (HaCaT cells [2]; 10 μM Okanin): significantly increased; filling of the wound area (HaCaT cells [3]): more quickly filled; cells survived after UVB (HaCaT cells [4]): about 60%
